Assays:
Hela cells [1] = assay: Cy3-labeled rAAV binding to Hela cells at 4° C., heparin competition; type: cell-based, human; conditions: free heparin at the time of infection
Experimental: FIGS. 18A–D. Cy3-labeled rAAV infection in Hela cells. Hela cells were infected with Cy3-labeled AV.GFP3ori at an MOI of 500 particles/cells for 90 minutes at 4° C. in the absence of serum. Cells were then washed and either directly fixed in 2% paraformaldehyde for 10 minutes or incubated at 37° C. for an additional 60 or 120 minutes prior to fixation. Prior to viral infections, cells were incubated for 30 minutes in 1 μM 5-chloromethylfluorescein diacetate (Cell Tracker™ Green CMFDA, Molecular Probe) to allow for visualization of cells and labeled virus in dual fluorescent channel images. Representative confocal image of cells infected for 90 minutes at 4° C. followed by a 60 and 120 minute incubation at 37° C. are shown for both Cy3 and dual Cy3/FITC channels (FIG. 18A). The nuclei in dual channel images are marked by Nu. The confocal images shown were merged from three 0.5 μm layers taken within the central region of the cell. FIG. 18B depicts non-confocal images with Nomarski and Cy3 channels for cells infected for 90 minutes at 4° C. […]
To assess endocytosis and nuclear trafficking of AAV following treatment with various agents which may modulate these processes, fluorescently labeled virus was prepared. […] Several experimental conditions evaluated crosslinking reactions with dye:rAAV particle ratios of 0.2, 1, 5, 25, 100, and 200. […]

Hela cells [2] = conditions: previously shown; cited from earlier work

In the case of heparin, the “viral binding of Cy3-labeled rAAV” value (Hela cells [1]) is given as “inhibited in a dose-dependent fashion” and the “rAAV transduction in Hela cells” value (Hela cells [2]) is given as “inhibit most of rAAV transduction”.

From US7122335B1, “Compounds and methods to enhance rAAV transduction” (priority 1999, dated 2006)
